How the values were obtained:
[1] = tested on: MRSA 32; experiment: Murine assay procedure (systemic MRSA 32 infection, oral treatment); format: in vivo, swiss mice; conditions: Staphylococcus aureus; oral administration, doses 1 hr and 4 hrs after infection; MRSA 32 infected mice; percentage survival on Day 7
Experimental: Oxazolidinone new chemical entities (NCEs) were evaluated for their in vivo efficacy in a murine infection caused by multi-drug resistant, methicillin resistant Staphylococcus aureus strain, referred to as MRSA 32, a clinical isolate obtained from a hospitalised patient. The procedure used for the murine assay is as follows:
Four weeks old swiss mice of 18-22 gm body weight were infected with MRSA 32 strain suspended in 5% Hog gastric Mucin. The infecting dose of bacteria was set at 1-2×10^8 CFU/animal. The infecting dose was administered in 0.5 ml volume injected into peritonial cavity of mice. The treatment with oxazolidinone NCEs was started one hour after infection by administering 100-200 μl of the suspensions of oxazolidinone compounds in 5% Tween 80 by oral gavage. A repeat dose was similarly administered 3 hrs later. Each oxazolidinone NCE was tested at 2-3 different dosages in the range of 2.5 mg/kg to 20 mg/kg. In each dose group 6 mice were included. As an infection control group 12 mice were infected with MRSA 32 strain without giving any treatment. Normally untreated infected mice die within 24 hrs. due to the systemic spread of infection through out the animal body. […] For compounds affording protection of MRSA infected mice, ED50 dosages were calculated on the basis of percentage survival on Day 7 after infection.
The in-vivo ED50 values using the test compounds were determined essentially by the method as described in PCT WO 95/25106, U.S. Pat. No. 5,668,286 and EP 0 750 618 B1.

[2] = Pharmacokinetic study, single oral dose in beagle dog; format: in vivo; conditions: serum, single oral dose 5 mg/kg p.o., Compound No. 4 and linezolid in 5% Tween, other compounds in cyclodextrin; for AUC(0-t): read-out: AUC (0-24 hr); for concentration at 12 hr: read-out: C-12 hr
Experimental: Oral (5 mg/kg) and intravenous (5 mg/kg bolus) pharmacokinetic studies were done in dog. Blood samples were collected at time points of 0, 0.08 (not for oral), 0.25, 0.50, 1.0, 1.5, 2.0, 3.0, 4.0, 5.0, 6.0, 8.0, 10.0, 12.0 and 24.0 hours. To facilitate i.v. dosing and collection of blood samples, the dogs were implanted with cannula in cephalic vein. Serum obtained from blood samples was used for HPLC-based analysis.
Serum samples were extracted by solid phase extraction technique using Water's OASIS HLB cartridges. An HPLC-Diode array detection system was used for analysis. Prepared samples were chromatographed on a YMC-AM reversed phase column (150×4.6 mm ID; 5 μm) using an isocratic mobile phase acetate buffer (50 mmol ammonium acetate pH 6.6) acetonitrile, 66:34% v/v (for a representative compound of the invention, 68:32% v/v for compound Nos. 30, 3, 7 and 11 of U.S. Pat. No. 5,668,286, and 75:25% v/v for linezolid) at a flow rate of 1 ml/min, measured at λmax 254 nm. Independently prepared analytical standards and quality control samples were analyzed with each set of unknown samples.
The pharmacokinetics of a representative compound of the invention following single oral dose administration of the compound in beagle dog is shown in Table 2.

[3] = Myelosuppressive potential: spleen and thymus relative weights, 14-day oral dosing; format: in vivo, Wistar rats
From the text: Compound No.30 of U.S. Pat. […] Vehicle treated controls were maintained using identical experimental conditions. The treated as well as control rats were sacrificed 24 hr after the last dose. One parameter measured was the spleen to body weight ratio and thymus to body weight ratio in treated versus control animals. The spleen and thymus were trimmed free of fat and other contiguous organs/tissues and were weighed in an analytical balance (Sartorious BP 210). The spleen to terminal body weight ratio and the thymus to terminal body weights ratio was calculated to provide the respective relative weights. The ratio value of the respective relative weight of a treated animal versus the relative weight of a control animal is provided in Table 4. The myelosuppressive potential of a compound is inversely proportional to the ratio value. […] Values in each of the first two columns above represent ratio of relative weight (calculated organ to body weight ratio) of spleen or thymus in drug treated animals v/s control animals. […] The “[…]” column provides ratio of percentage reticulocytes in treated v/s percentage reticulocytes in control rats.

[4] = Wistar rats, oral, 14 consecutive days, 50 mg/kg per day (LNZ 2×25 mg/kg per day), ratio less than 0.75 indicates myelosuppressive potential

SMILES	ED50 [1] [mg/kg]	half-life [2] [h]	AUC(0-t) [2] [ng·h/mL]	Cmax [2] [ng/mL]	concentration at 12 hr [2] [ng/mL]	myelosuppressive potential (in words) ([3]; rat, in vivo)	Relative Weights Ratio Spleen (spleen weight/body weight of treated animal versus control animal) [3, 4]	Relative Weights Ratio Thymus (thymus weight/body weight of treated animal versus control animal) [3, 4]
CC(=O)NC[C@H]1CN(c2ccc(N3CCC(CC#N)CC3)c(F)c2)C(=O)O1 [Compound 4, (S)-N-{3-[4-(4-cyanomethyl-piperidin-1-yl)-3-fluoro-phenyl]-2-oxo-oxazolidin-5-ylmethyl}-acetamide]	2.5 to 5	10.8 ± 2.45	71560 ± 250	5660 ± 1490	2840 ± 170	no or lower myelosuppressive potential	–	–
CC(=O)NC[C@H]1CN(c2ccc(N3CCOCC3)c(F)c2)C(=O)O1 [Linezolid]	–	2.42 ± 0.17	22800 ± 2170	5700 ± 690	0	–	0.46	0.46
